This is an account of results in PMC11959706, “Allatostatin-C signaling in the crab Carcinus maenas is implicated in the ecdysis program” (The Journal of Experimental Biology, 2025).

One test relates to AST-CRd (TR71151). As to the kind of experiment: Aequorin luminescence receptor assay, CHO-K1-Aeq-Gα16 cells transiently expressing AST-CRd. It counts as cell-based, Carcinus maenas. The conditions noted are these: for Activation of AST-CRd at saturating doses: 10, 1 µmol l^−1 peptide, quadruplicate. An excerpt:
The transcriptome of neural tissue of C. maenas, which has been previously assembled ([Oliphant et al., 2018]), identified four putative AST-C receptor candidates: TR71151a-d ([Oliphant et al., 2018]). These were chemically synthesized with a modified 5′ Kozak sequence (GAATTCGCCACC) and cloned in frame into a pcDNA3.1(+) plasmid vector (Genscript, Piscataway, NJ, USA). Separate aliquots of OneShot TOP10® E. coli cells (Invitrogen, Paisley, UK) were transformed with the plasmids and grown on LB plates containing 100 µg ml^−1 ampicillin overnight at 37°C. Positive clones were cultured overnight in LB broth with 100 µg ml^−1 ampicillin at 37°C and plasmids extracted using a Qiagen Plasmid Midiprep kit according to the manufacturer's instructions. Purified plasmids were re-sequenced (MWG Eurofins, Ebersberg, Germany) and analyzed using Geneious 9.1.8 ([Kearse et al., 2012]).
Chinese hamster ovary (CHO-K1) cells containing stably expressed apoaequorin (Perkin Elmer, Boston, MA) and either Gα16 or Gq subunit (control cells) were cultured in Dulbecco's Modified Eagle Medium (DMEM) F-12 Nutrient Mixture Glutamax (Gibco®) supplemented with 10% fetal bovine serum (Gibco®). Cells were maintained in vented T75 flasks at 37°C in 5% CO2. Cells grown in a monolayer to approximately 60% confluency were transfected with pcDNA 3.1 constructs using FugeneHD® (Promega) according to the manufacturer's recommendations. Transfection medium was prepared by combining 800 µl Opti-MEM® (Gibco) with 10 µg vector and the cells further incubated overnight. Cells were detached from the culture flask by incubating for 10 min in 5 ml 0.2% EDTA in PBS, washed in 10 ml clear DMEM–F-12 containing L-glutamine and 15 mmol l^−1 HEPES, centrifuged (for 5 min at 260 g) and resuspended at a concentration of 5×10^6 cells ml^−1 in 0.2 µm filtered BSA medium (DMEM–F-12 containing L-glutamine, 15 mmol l^−1 HEPES and 0.1% BSA). Coelenterazine h (Invitrogen, Paisley, UK) was added to give a concentration of 5 µmol l^−1, and the cells incubated in the dark at room temperature with gentle rocking. Before the assay, cells were further diluted (10-fold) and incubated for 60 min before use. Dried aliquots of peptides were reconstituted in BSA medium, and 50 µl added in quadruplicate to a white 96-well plate (Optiplate®, Perkin Elmer). Cell suspensions were gently stirred and injected (50 µl per well) using a Mithras LB 940 microplate reader (Berthold Technologies, Bad Wildbad, Germany) and light emission (Ca^2+ response recorded for 30 s). Cells were then lysed by injection of 50 µl per well 0.3% Triton-X in BSA medium, and light emission recorded for a further 10 s to measure total Ca^2+ response. BSA medium was used for blank measurements (six replicates per plate) and transfection with empty vectors was used for negative controls. Data were analyzed using Mikrowin 2010 v5 (Mikrotek Laborsysteme, Overath, Germany) and SigmaPlot v15 (Systat Software, Grafiti, Slough, UK).

A further test deals with AST-CR(d). As to the kind of experiment: Aequorin luminescence receptor assay, AST-CR(d) construct in control cells expressing a Gq subunit. The conditions noted are these: CHO-K1-Aeq control cells expressing a Gq subunit, transfected with AST-CR(d) construct. The test is classed as cell-based, Carcinus maenas. Here is the method:
Chinese hamster ovary (CHO-K1) cells containing stably expressed apoaequorin (Perkin Elmer, Boston, MA) and either Gα16 or Gq subunit (control cells) were cultured in Dulbecco's Modified Eagle Medium (DMEM) F-12 Nutrient Mixture Glutamax (Gibco®) supplemented with 10% fetal bovine serum (Gibco®). Cells were maintained in vented T75 flasks at 37°C in 5% CO2. Cells grown in a monolayer to approximately 60% confluency were transfected with pcDNA 3.1 constructs using FugeneHD® (Promega) according to the manufacturer's recommendations. Transfection medium was prepared by combining 800 µl Opti-MEM® (Gibco) with 10 µg vector and the cells further incubated overnight. […] Cell suspensions were gently stirred and injected (50 µl per well) using a Mithras LB 940 microplate reader (Berthold Technologies, Bad Wildbad, Germany) and light emission (Ca^2+ response recorded for 30 s). Cells were then lysed by injection of 50 µl per well 0.3% Triton-X in BSA medium, and light emission recorded for a further 10 s to measure total Ca^2+ response. […] Data were analyzed using Mikrowin 2010 v5 (Mikrotek Laborsysteme, Overath, Germany) and SigmaPlot v15 (Systat Software, Grafiti, Slough, UK).

In test [1] the test system is semi-isolated heart preparations. As to the kind of experiment: Semi-isolated heart preparation bioassay. Details: species or system Carcinus maenas. The conditions noted are these: 10^−6 mol l^−1 in saline, 20°C, recorded about 2 min; four preparations. The source says: To determine possible myotropic and/or myoinhbitory activity of AST-C, AST-CC and AST-CCC, inter-molt crabs (∼65 mm carapace width) were ice-anaesthetized and rapidly decerebrated before removing all limbs and the dorsal carapace to expose the heart and pericardial cavity. The preparation was then fitted into a bowl lined with tissue, to provide a stable saline-flooded environment. The heart was connected to a force transducer (MLT0210/A) via a micro-fishing hook (size 28) and fine nylon (0.08 mm) monofilament. Connection to a PC with Chart 4.0 software was via a Bridge Pod (ML301) and Powerlab 4/20 (AD Instruments, Castle Hill, NSW, Australia). Transducer gain was set at maximum sensitivity (200 μV). Heart preparations were initially perfused with Carcinus physiological saline ([Saver et al., 1999]) at room temperature (20°C). Once a stable output was achieved, hearts were then perfused by sequentially adding approximately 2 ml saline containing AST-C, AST-CC and AST-CCC (GenScript Biotech, Piscataway, NJ, USA), and finally adding CCAP as a positive control (all peptides were at a concentration of 10^−6 mol l^−1 in saline). Each peptide addition was followed by extensive washout with saline, recording heart rate and beat amplitude for approximately 2 min after application of each peptide.

The test system of the next test is Y-organs. As to the kind of experiment: Y-organ in vitro bioassay of ecdysteroid synthesis (ecdysteroid RIA). The conditions noted are these: 100 nmol l^−1, 24 h incubation; N=3–6. It counts as cell-based, Carcinus maenas. As for the experimental part:
To determine the possible activity of AST-C and/or AST-CC on ecdysteroid synthesis, Y-organs (YOs) were dissected from ice-anaesthetized crabs and used in the in vitro bioassay as detailed previously ([Webster, 1986]). Following 24 h incubations, culture medium was aspirated and snap frozen in liquid nitrogen prior to ecdysteroid RIA. YOs were sonicated in PBS, centrifuged (13,000 g for 5 min at room temperature) and assayed for protein concentration using a BCA protein kit (EMD Millipore, Burlington MA, USA). Protein concentrations (BSA standards) were used to normalize ecdysteroid synthesis between YO pairs.
Ecdysteroid RIAs were performed on 20 µl aliquots of culture medium using the following conditions: 100 μl 1:2000 anti-ecdysteroid serum HB-2E (a kind gift from R. D Watson, Alabama University), 100 µl H^−3 Ponasterone A [24, 25, 26, 27-3H (N), 3.5 TBq mmol^−1 (American Radiochemical Company, St Louis, MO, USA)] at 28,000 dpm per tube. 25-Deoxyecdysone (a kind gift from Prof. R. Lafont, Sorbonne University, Paris) was used as a standard (range 2500–19.5 pg per tube), and unknowns and standards were assayed in triplicate. Bound was separated from free using 50 µl per tube immobilized donkey anti-rabbit nitrocellulose suspension (Sac-Cel), as detailed for the AST-C RIA. Pellets were resuspended in 600 µl Hi-Safe 3 (Perkin Elmer) prior to counting. Using this RIA, both ecdysone and 25-deoxyecdysone (the two ecdysteroids synthesized by C. maenas YOs) were equally recognized.

For the next test, the target named is AST-C receptor. The conditions noted are these: cited from earlier work; for EC50: Apis mellifera single AST-C receptor, ref Urlacher et al., 2016, read-out: EC50, receptor activation; for ED50, receptor activation: Tribolium castaneum AST-C receptor, ref Audsley et al., 2013. An excerpt: Thus, the cognate receptor for AST-CCC remains elusive. Despite the well-known similarity in receptor sequences between AST-CR and the somatostatin receptor ([Krienkamp et al., 2002]; [Mayoral et al., 2010]; [Jékely, 2013]; [Verl ...

In the next test the test system is heart. The following applies: H. americanus; often seen, the converse in some individuals; ref Dickinson et al., 2018; cited from earlier work.

Values joined by “and” are separate entries in the source; they are usually repeats but may differ in a detail not shown here. Equal values may be shown once. Bridge positions count the residues as written; N and C are the ends. Ends that are not written are not given here.

What is called EC50 is the concentration at which the effect is half-maximal. For “GNGDGRLYWRCYFNAVSCF (disulfide 11-18 (inferred)) [AST-CC, C. maenas AST-C family neuropeptide; synthetic (GenScript)]”, in the test with AST-CRd (TR71151), the “Activation of AST-CRd at saturating doses” value was “equally active”. Also, the “ED50, luminescence response” value in the test on AST-CRd (TR71151) (CHO-K1-Aeq-Gα16 cells transiently expressing AST-CRd, assayed in quadruplicate, two independent experiments, approximate values) was 2 nM and 2 to 6 nM. Also, in the test with AST-CR(d), the “Luminescent response in control cells” value is recorded as “no luminescent response”. Moreover, in test [1], the “Effect on heartbeat amplitude” value is recorded as “entirely unaffected” and the “Effect on heartbeat frequency (heart rate)” value is listed as “entirely unaffected”. The “Effect on ecdysteroid synthesis by Y-organs” value in the test with Y-organs is recorded as “entirely without effect”. For the same substance, at AST-C receptor, the EC50 was 15.4 nM and the “ED50, receptor activation” value is 105.7 nM. For the same substance, in the test with heart, the “Effect on heart rate” value was “decrease in amplitude and frequency of heart rate”.

As to “pQIRYHQCYFNPISCF (disulfide) [AST-C, allatostatin-C, C. maenas AST-C family neuropeptide with C-terminal PISCF motif; synthetic (GenScript)]”, in the test with AST-CRd (TR71151), the “Activation of AST-CRd at saturating doses” value is “equally active”. Further, in the test on AST-CR(d), the “Luminescent response in control cells” value was “no luminescent response”. In test [1], the “Effect on heartbeat amplitude” value is “entirely unaffected” and the “Effect on heartbeat frequency (heart rate)” value is given as “entirely unaffected”. Further, in the test on Y-organs, the “Effect on ecdysteroid synthesis by Y-organs” value was “entirely without effect”. Further, at AST-C receptor, the EC50 is 14.6 nM and the “ED50, receptor activation” value was 25 nM. Moreover, the “Effect on heart rate” value in the test on heart is “decrease in amplitude and frequency of heart rate”.
